In patent publication US8937091B2 (Japan Science and Technology Agency, priority 2009, dated 2015):

How the values were obtained:
[1] = tested on: SOCE (store operated calcium entry) in CHO cells; test: Assay of SOCE (store operated calcium entry)-inhibiting action; format: cell-based, Chinese hamster; conditions: Cricetulus griseus, CHO, CHO cells, thapsigargin, read-out: SOCE level (percentage of inhibition); for inhibition at 30 µM: test compound 30 μmol; for inhibition at 100 µM: test compound 100 μmol; for inhibition at 10 µM: test compound 10 μmol
Summary of the method: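 CHO cells in calcium-free BSS received compound, then 1 μM thapsigargin 2 min later to deplete stores; after 9 min, 2 mM calcium chloride (final) added. Percent inhibition of the rise in intracellular calcium determined at various compound concentrations.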

[2] = tested on: IICR (IP3 induced calcium release) in CHO cells; test: Assay of IICR (IP3 induced calcium release)-inhibiting action; format: cell-based, Chinese hamster; conditions: Cricetulus griseus, CHO, CHO cells, 10 μM ATP, read-out: IICR level (percentage of inhibition); for inhibition at 10 µM: test compound 10 μmol; for inhibition at 30 µM: test compound 30 μmol; for inhibition at 100 µM: test compound 100 μmol
Summary of the method: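 CHO cell medium replaced with calcium-containing BSS; compound added 1 min later, then 10 μM ATP after a further 2 min. Percent inhibition of the ATP-evoked rise in intracellular calcium determined at each compound concentration.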

| SMILES | inhibition at 30 µM [1] [%] | inhibition at 100 µM [1] [%] | inhibition at 10 µM [2] [%] | inhibition at 30 µM [2] [%] | inhibition at 100 µM [2] [%] | inhibition at 10 µM [1] [%] |
| --- | --- | --- | --- | --- | --- | --- |
| CCN(CCC(=O)c1ccc(Cl)s1)Cc1ccccc1 [Example 278, 2-(N-ethylbenzyl)aminoethyl-5-chloro-2-thienylketone] | 30 | 40 | 30 | 20 | 60 | – |
| Cc1ccc(C(=O)CCN(Cc2ccccc2)C(C)(C)C)o1 [Example 137, 2-(N-benzyl-t-butyl)aminoethyl-5-methyl-2-furylketone] | 0 | 0 | 40 | 50 | 50 | 0 |
| CC(C)N(CCO)CCC(=O)c1ccc[nH]1 [Example 170, 2-(N-isopropyl-2-hydroxyethyl)aminoethyl-2-pyrrolylketone] | 0 | 0 | 0 | 0 | 0 | 0 |
| CC(C)N(CCC(=O)c1cccs1)Cc1ccccc1 [Example 183, 2-(N-isopropylbenzyl)aminoethyl-2-thiophenylketone] | 0 | 20 | 0 | 0 | 50 | 0 |
| CC(C)N(CCO)CCC(=O)c1ccc(Cl)s1 [Example 267, 2-(N-2-hydroxyethylisopropyl)aminoethyl-5-chloro-2-thiophenylketone] | 0 | 0 | 0 | 0 | 70 | 0 |
| CCC(CO)(CO)NCCC(=O)c1ccc(Br)s1 [Example 365, 2-(N-1,1-bishydroxymethylpropyl)aminoethyl-5-bromo-2-thienylketone] | 0 | 10 | 0 | 0 | 70 | 0 |
| Cc1csc(C(=O)CCN(Cc2ccccc2)C(C)C)n1 [Example 263, 2-(N-benzylisopropyl)aminoethyl-4-methyl-2-thiazolylketone] | 0 | 30 | 0 | 0 | 70 | 0 |
| CCCCN(CCO)CCC(=O)c1ccc2c(Cl)cccc2c1 [Example 91, 2-(N-2-hydroxyethylbutyl)aminoethyl-5-chloro-2-naphthylketone] | 10 | 90 | 20 | 90 | 100 | 0 |
| Cc1ccc(C(=O)CCN(CCO)CCO)o1 [Example 145, 2-(N-bishydroxyethyl)aminoethyl-5-methyl-2-furylketone] | 10 | 20 | 50 | 30 | 30 | 0 |
| CC(C)(C)N(CCO)CCC(=O)c1ccccn1 [Example 244, 2-(N-t-butyl-2-hydroxyethyl)aminoethyl-2-pyridylketone] | 0 | 0 | 0 | 0 | 0 | 0 |
| O=C(CCNCCN(CCO)CCC(=O)c1cnccn1)c1cnccn1 [Example 273, N,N-bis(2-pyrazoylethyl)-N-hydroxyethylethylenediamine] | 0 | 10 | 40 | 30 | 20 | – |
| Cc1ccc(C(=O)CCN(C)Cc2ccccc2)o1 [Example 241, 2-(N-benzylmethyl)aminoethyl-5-methyl-2-furylketone] | 0 | 10 | 0 | 0 | 70 | 0 |
| O=C(CCNc1ccccc1S)c1ccc(Br)s1 [Example 347, 2-(N-2-mercaptophenyl)aminoethyl-5-bromo-2-thienylketone] | 0 | 0 | 0 | 20 | 50 | 0 |
